Reference: PubChem BioAssay (NCI)
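All cell lines were grown in 96-well plates and treated with compound for 48 hours. TGI: concentration producing complete growth inhibition.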

Key:
Assay in all cases: NCI tumour cell line growth inhibition, 48 h
OVCAR-5 ovarian = test system: OVCAR-5 ovarian
UACC-257 melanoma = test system: UACC-257 melanoma
OVCAR-3 ovarian = test system: OVCAR-3 ovarian
SN12C renal = test system: SN12C renal
U251 CNS = test system: U251 CNS
HL-60(TB) leukemia = test system: HL-60(TB) leukemia
K-562 leukemia = test system: K-562 leukemia
SF-268 CNS = test system: SF-268 CNS
SNB-75 CNS = test system: SNB-75 CNS
HCT-116 colon = test system: HCT-116 colon
SK-OV-3 ovarian = test system: SK-OV-3 ovarian
HCC-2998 colon = test system: HCC-2998 colon
EKVX NSCLC = test system: EKVX NSCLC
HT29 colon = test system: HT29 colon
SW-620 colon = test system: SW-620 colon
COLO 205 colon = test system: COLO 205 colon
UO-31 renal = test system: UO-31 renal
SNB-19 CNS = test system: SNB-19 CNS
A549 NSCLC = test system: A549 NSCLC
RPMI-8226 leukemia = test system: RPMI-8226 leukemia

Row | Compound | TGI (OVCAR-5 ovarian) | TGI (UACC-257 melanoma) | TGI (OVCAR-3 ovarian) | TGI (SN12C renal) | TGI (U251 CNS) | TGI (HL-60(TB) leukemia) | TGI (K-562 leukemia) | TGI (SF-268 CNS) | TGI (SNB-75 CNS) | TGI (HCT-116 colon) | TGI (SK-OV-3 ovarian) | TGI (HCC-2998 colon) | TGI (EKVX NSCLC) | TGI (HT29 colon) | TGI (SW-620 colon) | TGI (COLO 205 colon) | TGI (UO-31 renal) | TGI (SNB-19 CNS) | TGI (A549 NSCLC) | TGI (RPMI-8226 leukemia)
1 | O=c1oc2cc(O)ccc2c(O)c1Cc1c(O)c2ccc(O)cc2oc1=O | > 100 µM | > 100 µM | > 100 µM | > 100 µM | > 100 µM | > 100 µM | > 100 µM | > 100 µM | > 100 µM | > 100 µM | > 100 µM | > 100 µM | > 100 µM | > 100 µM | > 100 µM | > 100 µM | > 100 µM | > 100 µM | > 100 µM | 
2 | CCC1NC(N=Nc2ccc([N+](=O)[O-])cc2)(P(=O)(OC(C)C)OC(C)C)OC1=O (stereo unspecified) | > 100 µM | > 100 µM | > 100 µM | > 100 µM | > 100 µM | > 100 µM | > 100 µM | > 100 µM | 97.4 µM | > 100 µM | > 100 µM | > 100 µM | > 100 µM | > 100 µM | > 100 µM | > 100 µM | > 100 µM | > 100 µM | > 100 µM | > 100 µM
3 | Cc1ccc2c(=O)c3ccccc3sc2c1 | > 100 µM |  | > 100 µM | > 100 µM | > 100 µM | > 100 µM | > 100 µM | > 100 µM |  | > 100 µM | > 100 µM | > 100 µM | > 100 µM | > 100 µM | > 100 µM | > 100 µM | > 100 µM | > 100 µM | > 100 µM | > 100 µM
4 | CC1=CC2c3cccc4[nH]cc(c34)CC2N(C)C1 (stereo unspecified) | > 100 µM | > 100 µM | > 100 µM | > 100 µM | > 100 µM | > 100 µM | > 100 µM | > 100 µM | > 82.4 µM | > 100 µM | > 100 µM | 86 µM | > 100 µM | > 100 µM | > 100 µM | > 100 µM | > 76.9 µM | > 100 µM | > 100 µM | > 100 µM
5 | O=C(O)C1CCCCN1c1ccccc1[N+](=O)[O-] (stereo unspecified) | > 100 µM | > 100 µM | > 100 µM | > 100 µM | > 100 µM | > 100 µM | > 100 µM | > 100 µM | > 100 µM | > 100 µM | > 100 µM | > 100 µM | > 100 µM | > 100 µM | > 100 µM |  | > 100 µM | > 100 µM | > 100 µM | > 100 µM
6 | CN(Cc1cnc2c(N)nc(N)nc2n1)c1ccc(Cl)cc1 | > 100 µM | > 100 µM | > 100 µM | > 100 µM | > 100 µM | > 100 µM | > 100 µM | > 100 µM | 29.6 µM |  | > 100 µM |  | > 100 µM |  | > 100 µM | > 100 µM | > 100 µM | > 100 µM |  | > 100 µM
7 | C[C@@H]1CC[C@@]2(OC1)O[C@H]1C[C@H]3[C@@H]4CC[C@H]5C[C@@H](OC6OC(CO)C(OC7OC(CO)C(O)C(OC8OCC(O)C(O)C8O)C7OC7OC(CO)C(O)C(O)C7O)C(O)C6O)[C@H](O)C[C@]5(C)[C@H]4CC[C@]3(C)[C@H]1[C@@H]2C (stereo partly specified) | 18.9 µM | 39.9 µM | 9.56 µM |  | 12.4 µM | 9.54 µM | > 100 µM | 23.7 µM | 27.9 µM | 17.8 µM | 29.8 µM | 24.7 µM | 21 µM | 13.3 µM | 21 µM | 22 µM | 17.8 µM | 27.1 µM | 10.9 µM | 30.1 µM
